From patent publication US8846933B2, “N-link hydroxamic acid derivatives useful as antibacterial agents” (Pfizer Inc., priority 2009, dated 2014)

Columns and labels:
[1] = test system: Pseudomonas aeruginosa UI-18: Wild-type (PA-7); assay: MIC determination (CLSI), strain PA-7; type: cell-based; conditions: strain PA-7; unit assumed
Method in brief: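 Strain tested was P. aeruginosa UI-18, a wild-type isolate labelled PA-7. Minimum inhibitory concentrations followed CLSI dilution methodology for aerobically growing bacteria (M7-A7, M100-S18).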

[2] = test system: Escherichia coli EC-1: VOGEL, mouse virulent; assay: MIC determination (CLSI), strain EC-1; type: cell-based; conditions: strain EC-1; unit assumed
Method in brief: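 The mouse-virulent VOGEL isolate of E. coli, EC-1, served as test organism. Minimum inhibitory concentration was measured by CLSI dilution methodology (M7-A7; M100-S18 standards).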

Question: Which results are given for `C[C@@](CCn1ccc(-c2cc(Cl)cc(Cl)c2)cc1=O)(C(=O)NO)S(C)(=O)=O` [Example 336, (2R)-4-[4-(3,5-dichlorophenyl)-2-oxopyridin-1(2H)-yl]-N-hydroxy-2-methyl-2-(methylsulfonyl)butanamide]?
Answer: PA-7 (MIC) [1]: 8 µg/mL; EC-1 (MIC) [2]: 4 µg/mL

Question: How did the PA-7 (MIC) [1] turn out when `C[C@@](CCn1ccc(-c2ccc(OC3CCNCC3)c(F)c2)cc1=O)(C(=O)NO)S(C)(=O)=O` [Example 337, (2R)-4-{4-[3-fluoro-4-(piperidin-4-yloxy)phenyl]-2-oxopyridin-1(2H)-yl}-N-hydroxy-2-methyl-2-(methylsulfonyl)butanamide] was run?
Answer: The PA-7 (MIC) was greater than 64 µg/mL.

Question: And the EC-1 (MIC) [2]?
Answer: Its EC-1 (MIC) is greater than 64 µg/mL.

Question: How did the PA-7 (MIC) [1] turn out when `C[C@@](CCn1ccc(-c2ccc(OC(F)F)cc2)cc1=O)(C(=O)NO)S(C)(=O)=O` [Example 338, (2R)-4-{4-[4-(difluoromethoxy)phenyl]-2-oxopyridin-1(2H)-yl}-N-hydroxy-2-methyl-2-(methylsulfonyl)butanamide] was run?
Answer: The PA-7 (MIC) was 0.5 µg/mL.

Question: And the EC-1 (MIC) [2]?
Answer: Its EC-1 (MIC) is 0.5 µg/mL.

Question: For `C[C@@](CCn1ccc(-c2ccc3c(c2)CCC3=O)cc1=O)(C(=O)NO)S(C)(=O)=O` [Example 339, (2R)-N-hydroxy-2-methyl-2-(methylsulfonyl)-4-[2-oxo-4-(1-oxo-2,3-dihydro-1H-inden-5-yl)pyridin-1(2H)-yl]butanamide], which PA-7 (MIC) [1] is on record?
Answer: Its PA-7 (MIC) is 4 µg/mL.

Question: What about the EC-1 (MIC) [2] of the same compound?
Answer: Its EC-1 (MIC) is 4 µg/mL.

Question: What does the source list for `C[C@@](CCn1ccc(-c2ccc(-c3cnco3)cc2)cc1=O)(C(=O)NO)S(C)(=O)=O` [Example 340, (2R)-N-hydroxy-2-methyl-2-(methylsulfonyl)-4-{4-[4-(1,3-oxazol-5-yl)phenyl]-2-oxopyridin-1(2H)-yl}butanamide]?
Answer: PA-7 (MIC) [1]: 1 µg/mL; EC-1 (MIC) [2]: 0.25 µg/mL

Question: For `C[C@@](CCn1ccc(-c2ccccc2Cl)cc1=O)(C(=O)NO)S(C)(=O)=O` [Example 341, (2R)-4-[4-(2-chlorophenyl)-2-oxopyridin-1(2H)-yl]-N-hydroxy-2-methyl-2-(methylsulfonyl)butanamide], which PA-7 (MIC) [1] is on record?
Answer: The PA-7 (MIC) was 2 µg/mL.

Question: What about the EC-1 (MIC) [2] of the same compound?
Answer: The EC-1 (MIC) was 4 µg/mL.

Question: With `COc1ccc(-c2ccn(CC[C@](C)(C(=O)NO)S(C)(=O)=O)c(=O)c2)c(Cl)c1` [Example 342, (2R)-4-[4-(2-chloro-4-methoxyphenyl)-2-oxopyridin-1(2H)-yl]-N-hydroxy-2-methyl-2-(methylsulfonyl)butanamide] as the compound, how does the PA-7 (MIC) [1] read?
Answer: Its PA-7 (MIC) is 0.5 µg/mL.

Question: What about the EC-1 (MIC) [2] of the same compound?
Answer: Its EC-1 (MIC) is 0.5 µg/mL.

Question: `CC(C)(C#N)Cc1ccc(-c2ccn(CC[C@](C)(C(=O)NO)S(C)(=O)=O)c(=O)c2)cc1` [Example 343, (2R)-4-{4-[4-(2-cyano-2-methylpropyl)phenyl]-2-oxopyridin-1(2H)-yl}-N-hydroxy-2-methyl-2-(methylsulfonyl)butanamide] was tested. Which PA-7 (MIC) [1] did it give?
Answer: The PA-7 (MIC) was 2 µg/mL.

Question: And the EC-1 (MIC) [2]?
Answer: The EC-1 (MIC) was 8 µg/mL.

Question: Which results are given for `C[C@@](CCn1ccc(-c2ccc(CCCO)c(F)c2)cc1=O)(C(=O)NO)S(C)(=O)=O` [Example 344, (2R)-4-{4-[3-fluoro-4-(3-hydroxypropyl)phenyl]-2-oxopyridin-1(2H)-yl}-N-hydroxy-2-methyl-2-(methylsulfonyl)butanamide]?
Answer: PA-7 (MIC) [1]: 2 µg/mL; EC-1 (MIC) [2]: 4 µg/mL

Question: With `COc1ccc(-c2ccn(CC[C@](C)(C(=O)NO)S(C)(=O)=O)c(=O)c2)c(C)c1` [Example 345, (2R)-N-hydroxy-4-[4-(4-methoxy-2-methylphenyl)-2-oxopyridin-1(2H)-yl]-2-methyl-2-(methylsulfonyl)butanamide] as the compound, how does the PA-7 (MIC) [1] read?
Answer: Its PA-7 (MIC) is 4 µg/mL.

Question: And the EC-1 (MIC) [2]?
Answer: The EC-1 (MIC) was 4 µg/mL.

Question: Which results are given for `COc1ccc(-c2ccn(CC[C@](C)(C(=O)NO)S(C)(=O)=O)c(=O)c2)cc1C` [Example 346, (2R)-N-hydroxy-4-[4-(4-methoxy-3-methylphenyl)-2-oxopyridin-1(2H)-yl]-2-methyl-2-(methylsulfonyl)butanamide]?
Answer: PA-7 (MIC) [1]: 0.5 µg/mL; EC-1 (MIC) [2]: 0.5 µg/mL

Question: With `C[C@@](CCn1ccc(-c2ccc(CCC#N)cc2)cc1=O)(C(=O)NO)S(C)(=O)=O` [Example 347, (2R)-4-{4-[4-(2-cyanoethyl)phenyl]-2-oxopyridin-1(2H)-yl}-N-hydroxy-2-methyl-2-(methylsulfonyl)butanamide] as the compound, how does the PA-7 (MIC) [1] read?
Answer: Its PA-7 (MIC) is 4 µg/mL.

Question: What about the EC-1 (MIC) [2] of the same compound?
Answer: Its EC-1 (MIC) is 64 µg/mL.

Question: With `C[C@@](CCn1ccc(-c2ccc(OC[C@H]3CC[C@@H](O)CC3)c(F)c2)cc1=O)(C(=O)NO)S(C)(=O)=O` [Example 348, (2R)-4-[4-{3-fluoro-4-[(cis-4-hydroxycyclohexyl)methoxy]phenyl}-2-oxopyridin-1(2H)-yl]-N-hydroxy-2-methyl-2-(methylsulfonyl)butanamide] as the compound, how does the PA-7 (MIC) [1] read?
Answer: The PA-7 (MIC) was 1 µg/mL.

Question: And the EC-1 (MIC) [2]?
Answer: The EC-1 (MIC) was 0.25 µg/mL.

Question: For `CC1(O)CCC(Oc2ccc(-c3ccn(CC[C@](C)(C(=O)NO)S(C)(=O)=O)c(=O)c3)cc2F)CC1` (stereo partly drawn) [Example 349, (2R)-4-[4-{3-fluoro-4-[(4-hydroxy-4-methylcyclohexyl)oxy]phenyl}-2-oxopyridin-1(2H)-yl]-N-hydroxy-2-methyl-2-(methylsulfonyl)butanamide], which PA-7 (MIC) [1] is on record?
Answer: The PA-7 (MIC) was 4 µg/mL.

Question: And the EC-1 (MIC) [2]?
Answer: The EC-1 (MIC) was 0.5 µg/mL.

Question: For `CC(C)(CO)c1ccc(-c2ccn(CC[C@](C)(C(=O)NO)S(C)(=O)=O)c(=O)c2)cc1` [Example 350, (2R)-N-hydroxy-4-{4-[4-(2-hydroxy-1,1-dimethylethyl)phenyl]-2-oxopyridin-1(2H)-yl}-2-methyl-2-(methylsulfonyl)butanamide], which PA-7 (MIC) [1] is on record?
Answer: Its PA-7 (MIC) is 16 µg/mL.

Question: What about the EC-1 (MIC) [2] of the same compound?
Answer: Its EC-1 (MIC) is 16 µg/mL.

Question: What does the source list for `C[C@@](CCn1ccc(-c2ccc(C3(O)CCC3)cc2)cc1=O)(C(=O)NO)S(C)(=O)=O` [Example 351, (2R)-N-hydroxy-4-{4-[4-(1-hydroxycyclobutyl)phenyl]-2-oxopyridin-1(2H)-yl}-2-methyl-2-(methylsulfonyl)butanamide]?
Answer: PA-7 (MIC) [1]: 16 µg/mL; EC-1 (MIC) [2]: 16 µg/mL

Question: With `COC1(c2ccc(-c3ccn(CC[C@](C)(C(=O)NO)S(C)(=O)=O)c(=O)c3)cc2)CCC1` [Example 352, (2R)-N-hydroxy-4-{4-[4-(1-methoxycyclobutyl)phenyl]-2-oxopyridin-1(2H)-yl}-2-methyl-2-(methylsulfonyl)butanamide] as the compound, how does the PA-7 (MIC) [1] read?
Answer: Its PA-7 (MIC) is 8 µg/mL.

Question: And the EC-1 (MIC) [2]?
Answer: The EC-1 (MIC) was 2 µg/mL.

Question: `C[C@@](CCn1ccc(-c2c(F)cccc2F)cc1=O)(C(=O)NO)S(C)(=O)=O` [Example 353] was tested. Which PA-7 (MIC) [1] did it give?
Answer: The PA-7 (MIC) was 1 µg/mL.

Question: And the EC-1 (MIC) [2]?
Answer: Its EC-1 (MIC) is 4 µg/mL.

Question: Which PA-7 (MIC) [1] does the source give for `C[C@@](CCn1ccc(-c2ccc(OC(F)(F)F)cc2F)cc1=O)(C(=O)NO)S(C)(=O)=O` [Example 354, (2R)-4-{4-[2-fluoro-4-(trifluoromethoxy)phenyl]-2-oxopyridin-1(2H)-yl}-N-hydroxy-2-methyl-2-(methylsulfonyl)butanamide] here?
Answer: The PA-7 (MIC) was 0.5 µg/mL.

Question: What about the EC-1 (MIC) [2] of the same compound?
Answer: Its EC-1 (MIC) is 0.25 µg/mL.

Question: `C[C@@](CCn1ccc(-c2ccc(SCC#N)cc2)cc1=O)(C(=O)NO)S(C)(=O)=O` [Example 355, (2R)-4-[4-{4-[(cyanomethyl)thio]phenyl}-2-oxopyridin-1(2H)-yl]-N-hydroxy-2-methyl-2-(methylsulfonyl)butanamide] was tested. Which PA-7 (MIC) [1] did it give?
Answer: The PA-7 (MIC) was 2 µg/mL.

Question: What about the EC-1 (MIC) [2] of the same compound?
Answer: The EC-1 (MIC) was 4 µg/mL.

Question: Which results are given for `Cc1cc(SCC#N)ccc1-c1ccn(CC[C@](C)(C(=O)NO)S(C)(=O)=O)c(=O)c1` [Example 356, (2R)-4-[4-{4-[(cyanomethyl)thio]-2-methylphenyl}-2-oxopyridin-1(2H)-yl]-N-hydroxy-2-methyl-2-(methylsulfonyl)butanamide]?
Answer: PA-7 (MIC) [1]: 4 µg/mL; EC-1 (MIC) [2]: 16 µg/mL

Question: How did the PA-7 (MIC) [1] turn out when `CC(C#N)Sc1ccc(-c2ccn(CC[C@](C)(C(=O)NO)S(C)(=O)=O)c(=O)c2)cc1` (stereo partly drawn) [Example 357] was run?
Answer: The PA-7 (MIC) was 1 µg/mL.

Question: What about the EC-1 (MIC) [2] of the same compound?
Answer: Its EC-1 (MIC) is 1 µg/mL.

Question: What does the source list for `Cc1cc(-n2nccn2)ccc1-c1ccn(CC[C@](C)(C(=O)NO)S(C)(=O)=O)c(=O)c1` [Example 358, (2R)-N-hydroxy-2-methyl-2-(methylsulfonyl)-4-{4-[2-methyl-4-(2H-1,2,3-triazol-2-yl)phenyl]-2-oxopyridin-1(2H)-yl}butanamide]?
Answer: PA-7 (MIC) [1]: 1 µg/mL; EC-1 (MIC) [2]: 0.25 µg/mL

Question: Which results are given for `C[C@H](O)c1ccc2cc(-c3ccn(CC[C@](C)(C(=O)NO)S(C)(=O)=O)c(=O)c3)ccc2c1` [Example 360, (2R)-N-hydroxy-4-[4-{6-[(1S)-1-hydroxyethyl]-2-naphthyl}-2-oxopyridin-1(2H)-yl]-2-methyl-2-(methylsulfonyl)butanamide]?
Answer: PA-7 (MIC) [1]: 1 µg/mL; EC-1 (MIC) [2]: 0.5 µg/mL

Question: Which results are given for `CCOc1ccc(-c2ccn(CC[C@](C)(C(=O)NO)S(C)(=O)=O)c(=O)c2)c(F)c1` [Example 361, (2R)-4-[4-(4-ethoxy-2-fluorophenyl)-2-oxopyridin-1(2H)-yl]-N-hydroxy-2-methyl-2-(methylsulfonyl)butanamide]?
Answer: PA-7 (MIC) [1]: 2 µg/mL; EC-1 (MIC) [2]: 0.5 µg/mL

Question: How did the PA-7 (MIC) [1] turn out when `CC(C)(C#N)c1ccc(-c2ccn(CC[C@](C)(C(=O)NO)S(C)(=O)=O)c(=O)c2)cc1` [Example 362, (2R)-4-{4-[4-(1-cyano-1-methylethyl)phenyl]-2-oxopyridin-1(2H)-yl}-N-hydroxy-2-methyl-2-(methylsulfonyl)butanamide] was run?
Answer: The PA-7 (MIC) was 4 µg/mL.

Question: What about the EC-1 (MIC) [2] of the same compound?
Answer: Its EC-1 (MIC) is 16 µg/mL.

Question: For `Cn1ccnc1-c1ccc(-c2ccn(CC[C@](C)(C(=O)NO)S(C)(=O)=O)c(=O)c2)cc1` [Example 363, (2R)-N-hydroxy-2-methyl-4-{4-[4-(1-methyl-1H-imidazol-2-yl)phenyl]-2-oxopyridin-1(2H)-yl}-2-(methylsulfonyl)butanamide], which PA-7 (MIC) [1] is on record?
Answer: Its PA-7 (MIC) is 64 µg/mL.

Question: What about the EC-1 (MIC) [2] of the same compound?
Answer: The EC-1 (MIC) was 32 µg/mL.

Question: With `C[C@@](CCn1ccc(-c2ccc(-n3ccnn3)cc2)cc1=O)(C(=O)NO)S(C)(=O)=O` [Example 364, (2R)-N-hydroxy-2-methyl-2-(methylsulfonyl)-4-{2-oxo-4-[4-(1H-1,2,3-triazol-1-yl)phenyl]pyridin-1(2H)-yl}butanamide] as the compound, how does the PA-7 (MIC) [1] read?
Answer: The PA-7 (MIC) was 16 µg/mL.

Question: What about the EC-1 (MIC) [2] of the same compound?
Answer: Its EC-1 (MIC) is 16 µg/mL.

Question: Which PA-7 (MIC) [1] does the source give for `C[C@@](CCn1ccc(-c2ccc(OCCC[C@@H](O)CO)cc2)cc1=O)(C(=O)NO)S(C)(=O)=O` [Example 365, (2R)-4-[4-(4-{[(4R)-4,5-dihydroxypentyl]oxy}phenyl)-2-oxopyridin-1(2H)-yl]-N-hydroxy-2-methyl-2-(methylsulfonyl)butanamide] here?
Answer: Its PA-7 (MIC) is 4 µg/mL.

Question: What about the EC-1 (MIC) [2] of the same compound?
Answer: The EC-1 (MIC) was 4 µg/mL.

Question: Which results are given for `C[C@@](CCn1ccc(-c2ccc(OCCC(O)CO)cc2)cc1=O)(C(=O)NO)S(C)(=O)=O` (stereo partly drawn) [Example 366, (2R)-4-{4-[4-(3,4-dihydroxybutoxy)phenyl]-2-oxopyridin-1(2H)-yl}-N-hydroxy-2-methyl-2-(methylsulfonyl)butanamide]?
Answer: PA-7 (MIC) [1]: 16 µg/mL; EC-1 (MIC) [2]: 16 µg/mL
